Data from ChEMBL document CHEMBL4371076 (J Med Chem, 2019).

Tests used:
[1] = target: Sodium channel protein type 5 subunit alpha (Homo sapiens, UniProt Q14524); experiment: Inhibition of human Nav1.5 expressed in HEK293 cells after 600 secs at -50 mV holding potential by ion works barracuda population patch clamp method; assay type: cell-based
[2] = target: T1, Sodium channel protein type 9 subunit alpha (Homo sapiens, UniProt Q15858); experiment: Inhibition of human Nav1.7 expressed in HEK293 cells after 600 secs at -60 mV holding potential by ion works barracuda population patch clamp method; assay type: cell-based
T1 sequence (Q15858 whole entry): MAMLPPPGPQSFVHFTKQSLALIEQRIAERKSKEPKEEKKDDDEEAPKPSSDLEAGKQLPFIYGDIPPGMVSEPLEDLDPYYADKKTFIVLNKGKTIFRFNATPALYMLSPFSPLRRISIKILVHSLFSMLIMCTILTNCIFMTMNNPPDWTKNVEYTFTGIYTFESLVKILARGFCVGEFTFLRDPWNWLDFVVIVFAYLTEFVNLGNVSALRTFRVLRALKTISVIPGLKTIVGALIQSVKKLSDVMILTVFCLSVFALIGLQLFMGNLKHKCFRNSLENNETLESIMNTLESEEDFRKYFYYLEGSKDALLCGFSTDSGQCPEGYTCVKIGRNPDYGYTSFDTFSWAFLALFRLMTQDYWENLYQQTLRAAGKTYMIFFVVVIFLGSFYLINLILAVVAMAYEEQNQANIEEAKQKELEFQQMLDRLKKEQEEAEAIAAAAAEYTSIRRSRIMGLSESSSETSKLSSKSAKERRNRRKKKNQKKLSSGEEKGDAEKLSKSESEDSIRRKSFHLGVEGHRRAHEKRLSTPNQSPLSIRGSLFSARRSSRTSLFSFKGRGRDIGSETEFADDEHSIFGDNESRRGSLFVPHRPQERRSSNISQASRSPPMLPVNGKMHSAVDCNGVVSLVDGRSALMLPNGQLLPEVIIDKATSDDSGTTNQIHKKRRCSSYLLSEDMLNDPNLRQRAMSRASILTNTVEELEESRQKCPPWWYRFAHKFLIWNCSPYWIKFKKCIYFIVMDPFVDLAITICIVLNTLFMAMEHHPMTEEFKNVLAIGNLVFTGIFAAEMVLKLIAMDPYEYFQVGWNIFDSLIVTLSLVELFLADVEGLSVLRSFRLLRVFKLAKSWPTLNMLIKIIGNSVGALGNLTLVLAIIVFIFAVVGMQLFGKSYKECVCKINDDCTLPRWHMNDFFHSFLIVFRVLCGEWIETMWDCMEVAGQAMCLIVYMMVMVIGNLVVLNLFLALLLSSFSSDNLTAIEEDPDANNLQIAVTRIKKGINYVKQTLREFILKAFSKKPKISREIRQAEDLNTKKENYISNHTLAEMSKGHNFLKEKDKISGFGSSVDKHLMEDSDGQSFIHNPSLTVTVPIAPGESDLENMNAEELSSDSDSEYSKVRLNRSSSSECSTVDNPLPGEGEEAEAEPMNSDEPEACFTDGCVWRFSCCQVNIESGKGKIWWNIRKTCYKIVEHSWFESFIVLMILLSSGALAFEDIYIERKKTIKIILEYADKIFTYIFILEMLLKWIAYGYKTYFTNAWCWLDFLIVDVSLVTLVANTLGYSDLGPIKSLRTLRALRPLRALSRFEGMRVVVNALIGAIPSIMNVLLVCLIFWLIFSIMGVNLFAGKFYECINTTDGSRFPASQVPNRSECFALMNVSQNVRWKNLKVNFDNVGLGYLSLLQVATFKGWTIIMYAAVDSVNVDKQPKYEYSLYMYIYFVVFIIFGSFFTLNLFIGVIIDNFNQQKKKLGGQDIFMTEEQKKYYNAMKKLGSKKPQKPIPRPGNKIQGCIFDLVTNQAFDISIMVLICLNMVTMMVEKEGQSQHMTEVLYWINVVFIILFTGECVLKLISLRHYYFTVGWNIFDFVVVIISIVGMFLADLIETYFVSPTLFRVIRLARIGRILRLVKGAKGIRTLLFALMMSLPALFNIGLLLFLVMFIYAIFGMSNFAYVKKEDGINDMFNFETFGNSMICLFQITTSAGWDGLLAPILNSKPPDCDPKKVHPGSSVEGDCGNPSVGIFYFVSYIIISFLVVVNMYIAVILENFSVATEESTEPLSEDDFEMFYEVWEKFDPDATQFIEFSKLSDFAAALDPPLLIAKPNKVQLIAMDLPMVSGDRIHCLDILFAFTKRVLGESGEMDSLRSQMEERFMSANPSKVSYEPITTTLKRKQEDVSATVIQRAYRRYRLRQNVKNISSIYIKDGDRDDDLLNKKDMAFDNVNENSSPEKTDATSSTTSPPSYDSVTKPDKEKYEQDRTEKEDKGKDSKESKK

Cytochrome P450 2D6 [3] = target: T2, Cytochrome P450 2D6 (Homo sapiens, UniProt P10635); experiment: Time-dependant inhibition of CYP2D6 in human liver microsomes; assay type: ADME
T2 sequence (P10635 whole entry): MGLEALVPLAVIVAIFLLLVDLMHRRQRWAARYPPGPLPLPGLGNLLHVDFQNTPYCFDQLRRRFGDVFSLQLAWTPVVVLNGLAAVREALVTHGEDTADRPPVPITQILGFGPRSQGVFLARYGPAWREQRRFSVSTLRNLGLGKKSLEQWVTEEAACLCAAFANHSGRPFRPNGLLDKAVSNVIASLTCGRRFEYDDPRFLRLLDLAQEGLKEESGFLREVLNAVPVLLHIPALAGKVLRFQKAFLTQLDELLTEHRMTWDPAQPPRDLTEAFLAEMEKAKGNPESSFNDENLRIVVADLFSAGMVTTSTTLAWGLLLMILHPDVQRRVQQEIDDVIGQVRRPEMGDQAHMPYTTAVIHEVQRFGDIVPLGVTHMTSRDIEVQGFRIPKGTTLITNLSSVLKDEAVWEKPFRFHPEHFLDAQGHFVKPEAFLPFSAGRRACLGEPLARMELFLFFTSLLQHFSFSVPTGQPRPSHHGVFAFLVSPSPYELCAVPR

[4] = Metabolic stability in mouse liver microsomes assessed as parent compound remaining at 0.5 uM after 10 mins; assay type: ADME, Microsome; conditions: read-out: Stability
[5] = Metabolic stability in rat liver microsomes assessed as parent compound remaining at 0.5 uM after 10 mins; assay type: ADME, Microsome; conditions: read-out: Stability
Cytochrome P450 2C19 [6] = target: T3, Cytochrome P450 2C19 (Homo sapiens, UniProt P33261); experiment: Inhibition of CYP2C19 in human liver microsomes; assay type: ADME; conditions: human, microsomes
T3 sequence (P33261 whole entry): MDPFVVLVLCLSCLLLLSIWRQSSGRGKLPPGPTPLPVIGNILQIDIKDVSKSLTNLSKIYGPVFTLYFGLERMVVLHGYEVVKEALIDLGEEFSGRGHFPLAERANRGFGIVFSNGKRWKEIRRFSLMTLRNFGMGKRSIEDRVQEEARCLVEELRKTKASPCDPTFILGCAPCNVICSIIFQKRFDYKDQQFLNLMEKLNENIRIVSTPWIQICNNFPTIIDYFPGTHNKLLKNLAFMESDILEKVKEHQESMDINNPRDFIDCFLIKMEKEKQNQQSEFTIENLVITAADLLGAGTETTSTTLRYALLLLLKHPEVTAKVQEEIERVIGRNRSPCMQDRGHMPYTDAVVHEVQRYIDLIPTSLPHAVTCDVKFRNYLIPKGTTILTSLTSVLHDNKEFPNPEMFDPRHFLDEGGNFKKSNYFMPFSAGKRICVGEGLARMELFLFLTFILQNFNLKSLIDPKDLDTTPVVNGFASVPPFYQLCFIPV

Cytochrome P450 2C8 [7] = target: T4, Cytochrome P450 2C8 (Homo sapiens, UniProt P10632); experiment: Inhibition of CYP2C8 in human liver microsomes; assay type: ADME; conditions: human, microsomes
T4 sequence (P10632 whole entry): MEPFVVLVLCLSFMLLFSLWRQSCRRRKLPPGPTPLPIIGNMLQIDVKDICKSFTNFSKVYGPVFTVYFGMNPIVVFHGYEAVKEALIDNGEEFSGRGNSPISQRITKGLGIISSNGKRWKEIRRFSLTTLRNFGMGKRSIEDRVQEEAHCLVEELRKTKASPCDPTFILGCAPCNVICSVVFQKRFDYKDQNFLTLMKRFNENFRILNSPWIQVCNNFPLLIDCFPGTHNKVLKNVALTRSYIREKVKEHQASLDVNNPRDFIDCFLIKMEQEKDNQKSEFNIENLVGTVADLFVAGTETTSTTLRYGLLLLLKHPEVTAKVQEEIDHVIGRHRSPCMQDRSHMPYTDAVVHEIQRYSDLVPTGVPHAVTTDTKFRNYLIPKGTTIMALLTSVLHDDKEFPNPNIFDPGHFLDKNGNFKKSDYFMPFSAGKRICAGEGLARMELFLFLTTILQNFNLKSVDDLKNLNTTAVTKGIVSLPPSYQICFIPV

[8] = Metabolic stability in human liver microsomes assessed as parent compound remaining at 0.5 uM after 10 mins; assay type: ADME, Microsome; conditions: read-out: Stability
Cytochrome P450 2C19 [9] = target: T3, Cytochrome P450 2C19; experiment: Time-dependant inhibition of CYP2C19 in human liver microsomes; assay type: ADME
[10] = Fraction unbound in human plasma; assay type: ADME, cell-free
[11] = Efflux ratio of permeability in human Caco2 cells; assay type: ADME, cell-based; conditions: Caco-2
Cytochrome P450 2C8 [12] = target: T4, Cytochrome P450 2C8; experiment: Time-dependant inhibition of CYP2C8 in human liver microsomes; assay type: ADME
Cytochrome P450 2C9 [13] = target: T5, Cytochrome P450 2C9 (Homo sapiens, UniProt P11712); experiment: Time-dependant inhibition of CYP2C9 in human liver microsomes; assay type: ADME
T5 sequence (P11712 whole entry): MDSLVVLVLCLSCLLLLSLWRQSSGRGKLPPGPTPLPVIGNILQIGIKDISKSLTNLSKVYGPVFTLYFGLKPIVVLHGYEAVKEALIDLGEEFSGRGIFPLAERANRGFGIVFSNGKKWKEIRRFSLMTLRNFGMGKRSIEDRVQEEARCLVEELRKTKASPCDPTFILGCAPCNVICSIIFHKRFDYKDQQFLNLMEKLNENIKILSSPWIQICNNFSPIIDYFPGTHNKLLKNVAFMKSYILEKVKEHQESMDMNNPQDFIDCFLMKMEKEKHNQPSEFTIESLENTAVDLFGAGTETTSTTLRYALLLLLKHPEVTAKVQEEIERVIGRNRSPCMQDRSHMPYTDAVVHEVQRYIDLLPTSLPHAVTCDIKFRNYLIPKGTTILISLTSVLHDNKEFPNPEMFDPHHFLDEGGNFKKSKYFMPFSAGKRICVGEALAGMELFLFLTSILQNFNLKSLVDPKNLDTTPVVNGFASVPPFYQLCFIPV

[14] = target: T1, Sodium channel protein type 9 subunit alpha; experiment: Inhibition of recombinant human Nav1.7 expressed in HEK293 cells at -70 mV holding potential by patch clamp electrophysiology method; assay type: cell-based
Cytochrome P450 2B6 [15] = target: T6, Cytochrome P450 2B6 (Homo sapiens, UniProt P20813); experiment: Inhibition of CYP2B6 in human liver microsomes; assay type: ADME; conditions: human, microsomes
T6 sequence (P20813 whole entry): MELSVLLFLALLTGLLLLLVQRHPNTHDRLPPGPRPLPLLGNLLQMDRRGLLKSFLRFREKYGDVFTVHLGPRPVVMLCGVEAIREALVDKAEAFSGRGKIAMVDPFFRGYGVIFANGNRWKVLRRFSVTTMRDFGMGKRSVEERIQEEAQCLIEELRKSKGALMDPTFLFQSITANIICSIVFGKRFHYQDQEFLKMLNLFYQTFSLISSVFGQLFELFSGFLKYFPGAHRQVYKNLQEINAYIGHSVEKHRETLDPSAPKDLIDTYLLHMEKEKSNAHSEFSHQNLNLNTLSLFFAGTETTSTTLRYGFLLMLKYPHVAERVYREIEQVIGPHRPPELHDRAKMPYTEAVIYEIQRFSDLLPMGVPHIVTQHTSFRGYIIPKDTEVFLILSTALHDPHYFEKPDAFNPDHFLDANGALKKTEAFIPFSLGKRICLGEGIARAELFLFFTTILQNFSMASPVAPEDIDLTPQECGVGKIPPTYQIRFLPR

Cytochrome P450 2B6 [16] = target: T6, Cytochrome P450 2B6; experiment: Time-dependant inhibition of CYP2B6 in human liver microsomes; assay type: ADME
[17] = Permeability from basolateral to apical side in human Caco2 cells; assay type: ADME, cell-based; conditions: Caco-2, read-out: permeability
[18] = Fraction unbound in mouse plasma; assay type: ADME, cell-free
Cytochrome P450 2D6 [19] = target: T2, Cytochrome P450 2D6; experiment: Inhibition of CYP2D6 in human liver microsomes; assay type: ADME; conditions: human, microsomes
Cytochrome P450 3A4 [20] = target: T7, Cytochrome P450 3A4 (Homo sapiens, UniProt P08684); experiment: Inhibition of CYP3A4 in human liver microsomes; assay type: ADME; conditions: human, microsomes
T7 sequence (P08684 whole entry): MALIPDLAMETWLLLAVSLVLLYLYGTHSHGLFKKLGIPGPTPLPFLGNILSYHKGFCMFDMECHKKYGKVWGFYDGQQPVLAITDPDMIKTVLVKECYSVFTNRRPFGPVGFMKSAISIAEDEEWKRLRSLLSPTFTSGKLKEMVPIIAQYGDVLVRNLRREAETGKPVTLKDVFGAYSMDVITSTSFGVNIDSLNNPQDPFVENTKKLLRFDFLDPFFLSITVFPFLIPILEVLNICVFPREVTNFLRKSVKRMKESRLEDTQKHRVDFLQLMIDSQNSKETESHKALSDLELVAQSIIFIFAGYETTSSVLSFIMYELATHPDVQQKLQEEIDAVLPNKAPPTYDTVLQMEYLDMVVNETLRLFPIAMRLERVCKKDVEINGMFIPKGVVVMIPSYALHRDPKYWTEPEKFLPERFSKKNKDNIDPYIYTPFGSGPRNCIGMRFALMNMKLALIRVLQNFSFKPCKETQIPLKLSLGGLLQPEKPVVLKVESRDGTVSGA

[21] = Permeability from apical to basolateral side in human Caco2 cells; assay type: ADME, cell-based; conditions: Caco-2, read-out: permeability
Cytochrome P450 2C9 [22] = target: T5, Cytochrome P450 2C9; experiment: Inhibition of CYP2C9 in human liver microsomes; assay type: ADME; conditions: human, microsomes
Cytochrome P450 3A4 [23] = target: T7, Cytochrome P450 3A4; experiment: Time-dependant inhibition of CYP3A4 in human liver microsomes; assay type: ADME
[24] = Permeability of the compound at pH 5.5 by PAMPA; assay type: ADME; conditions: read-out: permeability
[25] = Permeability of the compound at pH 7.4 by PAMPA; assay type: ADME; conditions: read-out: permeability

Molecule Cn1cc(-c2ccc(OC(F)(F)F)cc2)c2ccc(C(=O)NS(C)(=O)=O)cc21 has an IC50 [1] of 16 µM and an IC50 [2] of 0.08 µM.

Work on CC(C)COc1ccc(-c2nn(C)c3cc(C(=O)NS(C)(=O)=O)c(F)cc23)cn1 yielded an IC50 [1] greater than 30 µM and an IC50 [2] of 0.17 µM.

For Cn1cc(-c2cccnc2)c2ccc(C(=O)NS(C)(=O)=O)cc21, the IC50 [2] was greater than 3 µM.

With Cn1cc(-c2ccccc2)c2ccc(C(=O)NS(C)(=O)=O)cc21 the IC50 [1] was greater than 30 µM.

Cn1cc(-c2ccc(C(F)(F)F)cc2)c2ccc(C(=O)NS(=O)(=O)C3CC3)nc21 showed an IC50 [2] of 0.642 µM.

Molecule Cn1cc(-c2ccc(C(F)F)cc2)c2ccc(C(=O)NS(C)(=O)=O)cc21 has an IC50 [1] greater than 30 µM.

Cn1cc(-c2ccc(C(F)F)cc2)c2ccc(C(=O)NS(=O)(=O)C3CC3)cc21 showed an IC50 [1] greater than 30 µM.

With CC(C)Cc1ccc(-c2cn(C)c3cc(C(=O)NS(C)(=O)=O)ccc23)cc1 the TDI (Cytochrome P450 2D6 [3]) was “Not Active”, the IC50 [1] was greater than 30 µM and the remaining at 10 min, 0.5 µM [4] was 100%. The remaining at 10 min, 0.5 µM [5] was 94%, the “inhibition (INH)” value (Cytochrome P450 2C19 [6]) was “Not Active” and the “inhibition (INH)” value (Cytochrome P450 2C8 [7]) was “Not Active”. For the same molecule, the remaining at 10 min, 0.5 µM [8] was 100%, the TDI (Cytochrome P450 2C19 [9]) was “Not Active” and the fraction unbound [10] was 0.001. The efflux ratio [11] was greater than 6.2, the TDI (Cytochrome P450 2C8 [12]) was “Not Active” and the TDI (Cytochrome P450 2C9 [13]) was “Not Active”. For the same molecule, the IC50 [14] was 0.023 µM, the “inhibition (INH)” value (Cytochrome P450 2B6 [15]) was “Not Active” and the TDI (Cytochrome P450 2B6 [16]) was “Not Active”. The Papp B→A [17] was 7.8 ×10⁻⁶ cm/s, the fraction unbound [18] was 0.003 and the “inhibition (INH)” value (Cytochrome P450 2D6 [19]) was “Not Active”. The “inhibition (INH)” value (Cytochrome P450 3A4 [20]) was “Not Active”, the Papp A→B [21] was less than 1.5 ×10⁻⁶ cm/s and the “inhibition (INH)” value (Cytochrome P450 2C9 [22]) was “Not Active”. For the same molecule, the TDI (Cytochrome P450 3A4 [23]) was “Not Active”.

For Cn1cc(-c2ccc(C(F)(F)F)cc2)c2ccc(C(=O)NS(=O)(=O)c3ccc(F)c(F)c3)cc21, the IC50 [2] was greater than 3 µM.

In the case of CC(C)COc1ccc(-c2cn(C)c3cc(C(=O)NS(C)(=O)=O)ccc23)cn1, the IC50 [1] is reported as greater than 30 µM and the IC50 [2] is reported as 0.164 µM.

Cn1cc(-c2cccc(F)c2F)c2ccc(C(=O)NS(C)(=O)=O)cc21 showed an IC50 [1] greater than 30 µM.

Molecule COc1cc(-c2cn(C)c3cc(C(=O)NS(=O)(=O)C4CC4)ccc23)cnc1OCC(C)C has an IC50 [1] greater than 30 µM and an IC50 [2] of 0.085 µM.

Cc1ccc(-c2cn(C)c3cc(C(=O)NS(C)(=O)=O)ccc23)cc1 showed an IC50 [1] greater than 30 µM.

Cn1cc(-c2cnc(OCC(C)(C)O)c(Cl)c2)c2ccc(C(=O)NS(C)(=O)=O)cc21 showed an IC50 [1] greater than 30 µM and an IC50 [2] greater than 30 µM.

Work on CC(C)COc1ncc(-c2cn(C)c3cc(C(=O)NS(=O)(=O)C4CC4)cnc23)cc1Cl yielded an IC50 [2] of 2 µM.

CC(C)COc1ccc(-c2cn(C)c3cc(C(=O)NS(C)(=O)=O)ccc23)cc1 gave an IC50 [1] of 18 µM and an IC50 [2] of 0.53 µM.

Work on CC(C)COc1ncc(-c2cn(C)c3cc(C(=O)NS(C)(=O)=O)cnc23)cc1Cl yielded an IC50 [2] of 7.82 µM.

Molecule Cn1nc(-c2ccc(C(F)(F)F)cc2)c2cc(F)c(C(=O)NS(C)(=O)=O)cc21 has an IC50 [1] greater than 30 µM and an IC50 [2] of 0.052 µM.

For CC(C)COc1ccc(-c2nn(C)c3cc(C(=O)NS(=O)(=O)C4CC4)c(F)cc23)cn1, the TDI (Cytochrome P450 2D6 [3]) was “Not Active”, the IC50 [1] was 11 µM and the remaining at 10 min, 0.5 µM [4] was 92%. For the same molecule, the remaining at 10 min, 0.5 µM [5] was 88%, the “inhibition (INH)” value (Cytochrome P450 2C19 [6]) was “Not Active” and the “inhibition (INH)” value (Cytochrome P450 2C8 [7]) was “Not Active”. The remaining at 10 min, 0.5 µM [8] was 91%, the Papp [24] was 76.2 ×10⁻⁶ cm/s and the TDI (Cytochrome P450 2C19 [9]) was “Not Active”. The Papp [25] was 10 ×10⁻⁶ cm/s, the TDI (Cytochrome P450 2C8 [12]) was “Not Active” and the TDI (Cytochrome P450 2C9 [13]) was “Not Active”. For the same molecule, the IC50 [14] was 0.043 µM, the “inhibition (INH)” value (Cytochrome P450 2B6 [15]) was “Not Active” and the TDI (Cytochrome P450 2B6 [16]) was “Not Active”. For the same molecule, the fraction unbound [18] was 0.011, the “inhibition (INH)” value (Cytochrome P450 2D6 [19]) was “Not Active” and the “inhibition (INH)” value (Cytochrome P450 3A4 [20]) was “Not Active”. For the same molecule, the “inhibition (INH)” value (Cytochrome P450 2C9 [22]) was “Not Active”, the IC50 [2] was 0.045 µM and the TDI (Cytochrome P450 3A4 [23]) was “Not Active”.

In the case of CC(C)COc1ncc(-c2cn(C)c3nc(C(=O)NS(C)(=O)=O)ccc23)cc1Cl, the IC50 [2] is reported as 1.4 µM.
